ChEMBL document CHEMBL1201862, “PubChem BioAssay data set” (2004)
Activity calls are given as the source filed them.

How the values were obtained:
[1] = molecular target: G-protein coupled receptor 55 (Homo sapiens, UniProt Q9Y2T6); assay: selective activators of receptor GPR55 – imaging, U2OS cells, beta-arrestin-GFP redistribution, primary screen (AID 1961); type: functional
Bcl-2-like protein 10 = molecular target: T1, Bcl-2-like protein 10 (Homo sapiens, UniProt Q9HD36); assay: Bcl-B/TR3 peptide binding disruption – biochemical, fluorescence polarization, FITC-TR3 peptide, selectivity assay for Bfl-1 inhibitor project, primary screen (AID 748);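 also: fluorescence polarization from a fluorescein-labelled TR3 peptide binding purified Bcl-B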
T1 sequence (Q9HD36 whole entry): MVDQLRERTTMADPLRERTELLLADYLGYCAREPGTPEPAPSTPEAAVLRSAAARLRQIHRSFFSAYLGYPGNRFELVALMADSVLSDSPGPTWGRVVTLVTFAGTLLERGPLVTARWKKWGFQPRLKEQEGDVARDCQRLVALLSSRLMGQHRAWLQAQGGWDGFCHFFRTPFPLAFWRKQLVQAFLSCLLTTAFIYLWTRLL

Tumor necrosis factor = Tumor necrosis factor (Homo sapiens, UniProt P01375); assay: analog potency on TNFa NF-kB signaling – cell-based, revised, SAR follow-up (AID 2337); type: functional
Sequence of Tumor necrosis factor (P01375 whole entry, the tested form may be a part): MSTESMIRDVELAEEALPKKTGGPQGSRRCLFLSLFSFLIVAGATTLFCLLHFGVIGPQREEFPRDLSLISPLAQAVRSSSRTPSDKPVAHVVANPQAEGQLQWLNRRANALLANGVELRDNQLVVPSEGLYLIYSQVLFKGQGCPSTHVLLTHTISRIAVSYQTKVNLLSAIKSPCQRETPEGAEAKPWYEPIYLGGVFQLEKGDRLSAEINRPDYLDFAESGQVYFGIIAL

[2] = molecular target: Nucleotide-binding oligomerization domain-containing protein 2 (Homo sapiens, UniProt Q9HC29); assay: PubChem AID 2334; type: functional
Sequence of Nucleotide-binding oligomerization domain-containing protein 2 (Q9HC29 whole entry, the tested form may be a part): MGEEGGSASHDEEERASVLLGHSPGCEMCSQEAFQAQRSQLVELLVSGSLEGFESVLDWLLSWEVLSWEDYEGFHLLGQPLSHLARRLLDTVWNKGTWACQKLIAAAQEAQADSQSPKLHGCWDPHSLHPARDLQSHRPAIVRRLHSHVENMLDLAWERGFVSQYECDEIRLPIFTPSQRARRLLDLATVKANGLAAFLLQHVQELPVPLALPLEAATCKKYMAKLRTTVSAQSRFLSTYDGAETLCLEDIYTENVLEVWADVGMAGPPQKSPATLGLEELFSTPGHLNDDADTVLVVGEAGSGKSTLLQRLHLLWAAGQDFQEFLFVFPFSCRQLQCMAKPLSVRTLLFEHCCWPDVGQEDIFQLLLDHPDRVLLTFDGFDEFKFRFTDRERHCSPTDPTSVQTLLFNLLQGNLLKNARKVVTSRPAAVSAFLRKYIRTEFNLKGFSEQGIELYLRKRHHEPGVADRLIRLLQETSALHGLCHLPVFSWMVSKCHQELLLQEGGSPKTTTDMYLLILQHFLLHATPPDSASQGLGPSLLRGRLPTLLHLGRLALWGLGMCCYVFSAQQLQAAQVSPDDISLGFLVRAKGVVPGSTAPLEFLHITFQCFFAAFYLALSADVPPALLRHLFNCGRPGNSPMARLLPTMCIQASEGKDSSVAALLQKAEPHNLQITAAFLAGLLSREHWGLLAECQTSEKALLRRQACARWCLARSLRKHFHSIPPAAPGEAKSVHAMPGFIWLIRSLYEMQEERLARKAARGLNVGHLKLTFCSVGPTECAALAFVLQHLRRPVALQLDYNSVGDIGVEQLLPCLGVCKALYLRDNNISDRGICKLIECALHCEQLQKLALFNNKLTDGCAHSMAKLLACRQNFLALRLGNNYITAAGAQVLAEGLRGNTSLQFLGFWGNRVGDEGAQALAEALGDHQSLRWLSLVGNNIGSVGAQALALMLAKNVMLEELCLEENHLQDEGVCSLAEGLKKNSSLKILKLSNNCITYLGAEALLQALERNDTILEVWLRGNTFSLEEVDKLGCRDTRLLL

[3] = molecular target: T2, Nucleotide-binding oligomerization domain-containing protein 1 (Homo sapiens, UniProt Q9Y239); assay: blockers of NOD1 pathway activity – revised, SAR follow-up (AID 2333); type: functional
T2 sequence (Q9Y239 whole entry): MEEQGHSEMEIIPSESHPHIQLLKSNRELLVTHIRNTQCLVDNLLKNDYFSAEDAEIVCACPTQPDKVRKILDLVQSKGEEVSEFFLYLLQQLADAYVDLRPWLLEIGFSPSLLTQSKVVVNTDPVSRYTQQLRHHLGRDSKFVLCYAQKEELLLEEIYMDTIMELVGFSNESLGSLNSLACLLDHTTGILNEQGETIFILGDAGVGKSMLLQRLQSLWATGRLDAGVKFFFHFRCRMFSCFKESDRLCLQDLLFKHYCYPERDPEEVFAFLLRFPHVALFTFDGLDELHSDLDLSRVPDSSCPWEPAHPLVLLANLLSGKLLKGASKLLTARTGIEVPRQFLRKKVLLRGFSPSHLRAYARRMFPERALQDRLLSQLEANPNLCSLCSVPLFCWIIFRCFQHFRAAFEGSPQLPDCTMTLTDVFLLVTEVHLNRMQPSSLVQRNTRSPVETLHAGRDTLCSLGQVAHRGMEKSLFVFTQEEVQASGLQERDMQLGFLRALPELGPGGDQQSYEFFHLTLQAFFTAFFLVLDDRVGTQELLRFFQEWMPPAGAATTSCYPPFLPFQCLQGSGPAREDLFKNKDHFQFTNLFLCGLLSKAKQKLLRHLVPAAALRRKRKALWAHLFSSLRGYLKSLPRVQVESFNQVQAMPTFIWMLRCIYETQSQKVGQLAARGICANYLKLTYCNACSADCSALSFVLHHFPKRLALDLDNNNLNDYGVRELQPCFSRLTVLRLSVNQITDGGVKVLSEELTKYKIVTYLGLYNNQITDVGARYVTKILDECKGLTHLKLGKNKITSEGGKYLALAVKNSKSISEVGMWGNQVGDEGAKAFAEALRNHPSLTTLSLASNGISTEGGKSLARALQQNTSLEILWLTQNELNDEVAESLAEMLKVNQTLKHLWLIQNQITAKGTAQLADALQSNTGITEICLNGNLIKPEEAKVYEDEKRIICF

HEK293 [4] = assay: cells; conditions: Homo sapiens
Estrogen receptor beta [5] = molecular target: T3, Estrogen receptor beta (Homo sapiens, UniProt Q92731); assay: blockers of SRC-3 recruitment to ERβ – biochemical, ELISA, streptavidin-HRP readout, orthogonal assay, confirmation (AID 1060)
T3 sequence (Q92731 whole entry): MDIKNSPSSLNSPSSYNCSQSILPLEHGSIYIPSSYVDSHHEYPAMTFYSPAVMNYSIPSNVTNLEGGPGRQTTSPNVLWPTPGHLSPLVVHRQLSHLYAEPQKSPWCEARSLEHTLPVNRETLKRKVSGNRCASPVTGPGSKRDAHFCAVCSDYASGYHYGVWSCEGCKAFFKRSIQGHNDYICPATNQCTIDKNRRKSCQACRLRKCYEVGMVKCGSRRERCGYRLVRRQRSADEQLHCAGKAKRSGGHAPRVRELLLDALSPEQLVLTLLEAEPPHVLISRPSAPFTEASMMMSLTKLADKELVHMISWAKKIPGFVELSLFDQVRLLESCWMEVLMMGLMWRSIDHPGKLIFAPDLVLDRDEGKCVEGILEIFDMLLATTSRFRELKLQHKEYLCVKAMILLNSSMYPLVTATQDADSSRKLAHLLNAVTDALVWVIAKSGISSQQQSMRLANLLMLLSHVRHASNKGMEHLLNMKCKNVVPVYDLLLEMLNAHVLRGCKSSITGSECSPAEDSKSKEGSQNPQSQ

Estrogen receptor beta [6] = molecular target: T3, Estrogen receptor beta
X-box-binding protein 1 = molecular target: T4, X-box-binding protein 1 (Homo sapiens, UniProt P17861); type: functional, Cricetulus griseus;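 also: confirmatory dose-response counter-screen serving a CHOP assay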
T4 sequence (P17861 whole entry): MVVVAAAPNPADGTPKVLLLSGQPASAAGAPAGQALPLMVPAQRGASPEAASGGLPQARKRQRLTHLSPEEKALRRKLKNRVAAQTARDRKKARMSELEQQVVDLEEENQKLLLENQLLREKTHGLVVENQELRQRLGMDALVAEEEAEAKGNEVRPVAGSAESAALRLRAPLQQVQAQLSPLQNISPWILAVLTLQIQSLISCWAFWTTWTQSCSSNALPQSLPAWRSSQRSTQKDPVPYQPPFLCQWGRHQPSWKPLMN

[7] = IC50 of Artemis nuclease activity blockers – biochemical, fluorescence intensity, dose response (AID 720701); type: functional;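 also: Artemis endonuclease enzyme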
Estrogen receptor = molecular target: T5, Estrogen receptor (Homo sapiens, UniProt P03372);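 also: potency for inhibiting coactivator peptide recruitment to the receptor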
T5 sequence (P03372 whole entry): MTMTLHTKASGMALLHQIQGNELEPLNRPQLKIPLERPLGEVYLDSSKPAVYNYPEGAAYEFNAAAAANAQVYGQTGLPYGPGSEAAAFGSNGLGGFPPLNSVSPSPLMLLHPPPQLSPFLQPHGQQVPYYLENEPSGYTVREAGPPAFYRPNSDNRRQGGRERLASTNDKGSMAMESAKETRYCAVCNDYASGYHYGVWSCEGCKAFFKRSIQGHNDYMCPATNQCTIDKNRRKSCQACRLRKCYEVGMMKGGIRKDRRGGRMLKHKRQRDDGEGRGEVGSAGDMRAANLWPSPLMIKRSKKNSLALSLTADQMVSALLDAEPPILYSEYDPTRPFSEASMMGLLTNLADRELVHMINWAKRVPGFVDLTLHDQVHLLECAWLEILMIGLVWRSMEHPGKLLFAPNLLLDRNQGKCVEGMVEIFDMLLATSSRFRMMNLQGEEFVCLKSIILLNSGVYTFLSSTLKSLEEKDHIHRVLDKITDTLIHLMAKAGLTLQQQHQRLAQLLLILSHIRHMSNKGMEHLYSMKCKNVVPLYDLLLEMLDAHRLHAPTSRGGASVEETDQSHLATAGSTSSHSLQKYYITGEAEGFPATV

[8] = molecular target: Protein-tyrosine kinase 2-beta (Homo sapiens, UniProt Q14289);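 also: potency of inhibitors of PYK2 kinase phosphorylation of poly-GT substrate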
Sequence of Protein-tyrosine kinase 2-beta (Q14289 whole entry): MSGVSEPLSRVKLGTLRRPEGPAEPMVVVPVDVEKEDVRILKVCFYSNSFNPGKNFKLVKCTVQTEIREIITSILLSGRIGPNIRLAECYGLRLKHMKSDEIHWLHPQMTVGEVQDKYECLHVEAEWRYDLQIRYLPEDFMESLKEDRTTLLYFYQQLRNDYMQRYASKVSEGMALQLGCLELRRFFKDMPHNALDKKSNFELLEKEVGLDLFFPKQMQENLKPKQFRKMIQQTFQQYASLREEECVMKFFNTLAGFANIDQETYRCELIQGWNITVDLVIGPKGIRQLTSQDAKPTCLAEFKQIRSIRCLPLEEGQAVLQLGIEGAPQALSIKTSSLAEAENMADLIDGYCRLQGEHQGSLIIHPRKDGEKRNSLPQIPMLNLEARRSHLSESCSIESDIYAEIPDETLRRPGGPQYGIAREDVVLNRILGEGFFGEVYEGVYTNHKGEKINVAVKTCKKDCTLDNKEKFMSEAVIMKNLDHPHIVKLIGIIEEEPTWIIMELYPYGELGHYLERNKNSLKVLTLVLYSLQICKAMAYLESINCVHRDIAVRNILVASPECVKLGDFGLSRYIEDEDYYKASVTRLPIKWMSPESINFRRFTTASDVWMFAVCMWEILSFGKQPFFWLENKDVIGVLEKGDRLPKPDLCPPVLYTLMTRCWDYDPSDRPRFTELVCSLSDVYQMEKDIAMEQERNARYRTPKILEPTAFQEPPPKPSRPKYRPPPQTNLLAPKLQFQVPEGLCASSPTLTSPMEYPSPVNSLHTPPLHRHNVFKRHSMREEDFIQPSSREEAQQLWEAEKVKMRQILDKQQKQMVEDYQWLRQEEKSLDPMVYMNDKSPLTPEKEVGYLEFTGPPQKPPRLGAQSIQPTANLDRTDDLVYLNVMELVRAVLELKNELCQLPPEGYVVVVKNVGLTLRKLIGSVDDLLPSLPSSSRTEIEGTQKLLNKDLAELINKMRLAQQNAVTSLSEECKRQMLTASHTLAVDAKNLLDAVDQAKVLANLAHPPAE

[9] = molecular target: T6, Heat shock factor protein 1 (Mus musculus, UniProt P38532); assay: decrease of HSF1-responsive luciferase luminescence – cell-based, NIH3T3, dose retest, confirmation (AID 2382); type: functional;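 also: NIH3T3 fibroblasts with HSF1-driven luciferase reporter stressed by proteasome inhibitor MG132; luminescence from HSF1-driven luciferase expression after 8 hours of MG132 stress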
T6 sequence (P38532 whole entry): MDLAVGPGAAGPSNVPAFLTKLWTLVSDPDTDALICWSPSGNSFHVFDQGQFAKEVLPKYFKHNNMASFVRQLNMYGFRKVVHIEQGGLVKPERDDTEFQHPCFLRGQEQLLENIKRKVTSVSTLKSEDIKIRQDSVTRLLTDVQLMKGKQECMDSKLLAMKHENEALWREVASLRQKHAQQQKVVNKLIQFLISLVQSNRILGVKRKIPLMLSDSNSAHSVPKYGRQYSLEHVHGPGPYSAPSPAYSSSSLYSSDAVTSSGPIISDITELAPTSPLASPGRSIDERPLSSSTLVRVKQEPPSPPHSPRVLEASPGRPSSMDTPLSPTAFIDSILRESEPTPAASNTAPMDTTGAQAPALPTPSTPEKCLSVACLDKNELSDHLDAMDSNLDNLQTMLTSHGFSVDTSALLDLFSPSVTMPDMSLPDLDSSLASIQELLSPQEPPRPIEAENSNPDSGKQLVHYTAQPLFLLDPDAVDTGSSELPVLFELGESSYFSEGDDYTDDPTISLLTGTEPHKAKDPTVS

HEK293 [10] = assay: EBV LMP1 TES2 canonical NF-kB signalling blockers – cell-based, HEK293, luciferase, cherry-pick, dose response (AID 588343); type: functional; conditions: Homo sapiens

Sequence of G-protein coupled receptor 55 (Q9Y2T6 whole entry): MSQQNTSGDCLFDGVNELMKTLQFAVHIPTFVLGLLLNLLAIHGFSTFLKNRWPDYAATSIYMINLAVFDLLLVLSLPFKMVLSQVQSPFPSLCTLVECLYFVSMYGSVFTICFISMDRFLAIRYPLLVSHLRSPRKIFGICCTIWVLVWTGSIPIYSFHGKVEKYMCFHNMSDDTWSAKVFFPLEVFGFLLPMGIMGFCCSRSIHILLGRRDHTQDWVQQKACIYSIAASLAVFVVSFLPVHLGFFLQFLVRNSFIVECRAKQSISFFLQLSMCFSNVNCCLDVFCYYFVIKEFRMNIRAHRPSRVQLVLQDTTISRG

SMILES	IC50 (Bcl-2-like protein 10)	IC50 (Tumor necrosis factor)	IC50 [2]	IC50 [3]	IC50 (HEK293 [4])	also measured
CN1/C(=C\C(=O)COC(=O)c2ccco2)C(C)(C)c2ccccc21	–	–	–	–	–	EC50 [1]: 5.59 µM (active)
CC(=O)OC(c1nc2ccccc2c(=O)n1C1CC2(OC1=O)c1ccccc1N1C(=O)C(C)(C)N(O)C12)C(C)C (stereo unspecified)	–	–	–	–	–	EC50 [1]: 7.35 µM (active)
Cc1cccn2c(=O)c3cc(C(=O)NCC4CCCO4)c(=N)n(Cc4cccnc4)c3nc12 (stereo unspecified)	> 25 µM (inactive)	–	–	–	–	–
O=C(C1CC1)N1CCc2cc(S(=O)(=O)N3CCN(c4ccc([N+](=O)[O-])cc4)CC3)ccc21	–	12.4 µM (active)	8.44 µM (active)	6.5 µM (active)	> 20 µM (inactive)	–
Cc1ccccc1C(=O)Nc1nc2ccccc2n1Cc1ccc(Cl)cc1	–	> 20 µM (inactive)	> 20 µM (inactive)	> 20 µM (inactive)	> 20 µM (inactive)	–
O=C(Nc1ccc(Cl)c(Cl)c1)c1ccc(CN2CCc3ccccc3C2)cc1	–	> 20 µM (inactive)	> 20 µM (inactive)	0.891 µM (active)	8.89 µM (active)	–
O=C(COC(=O)CN1C(=O)c2ccccc2C1=O)Nc1ncc(Cl)cc1Cl	41.5 µM (active)	–	–	–	–	IC50 (Estrogen receptor beta [5]): < 77 µM (not active); IC50 (Estrogen receptor beta [6]): 11.1 µM (active)
Cc1ccc(/C=N/NC(=O)CSCc2ccc(Cl)cc2)cc1	–	–	–	–	–	Absolute IC50 (XBP1) (X-box-binding protein 1): 10 µM
O=C(Nc1ccc(N2CCCC2)cc1)C(c1ccccc1)c1ccccc1	18.9 µM (active)	–	–	–	–	IC50 [7]: > 20 µM (inactive); IC50 (Estrogen receptor): 7.09 µM (active); IC50 [8]: 11.6 µM (not active)
COc1ccc(CCNC(=O)c2nnn(-c3ccc4c(c3)OCCO4)c2N)cc1OC	–	–	–	–	–	EC50 [9]: 0.44 µM (active); AC50 (HEK293 [10]): 0.786 µM (active); Absolute IC50 (XBP1) (X-box-binding protein 1): 10 µM
